System: Huh7 psiCHECK-miR122 Renilla luciferase reporter, 48 h
Test: suppression of miR-122 activity, Renilla luciferase sensor – cell-based, Huh7 psiCHECK-miR122, cherry-pick, dose response (AID 652053)

Work on `CCn1nccc1C(=O)Nc1ccc(S(=O)(=O)NC23CC4CC(CC(C4)C2)C3)cc1` yielded an AC40 of 2.24 µM.

For `CN1CC(c2ccc(C#N)cc2)C2(COc3ccccc3C2=O)C12C(=O)Nc1ccccc12` (configuration not stated), the AC40 was 3.69 µM.

`COc1ccc(S(=O)(=O)NCc2ccccn2)cc1NC(=O)c1ccccc1C` was tested, and the AC40 was 10.2 µM.

With `Cc1ccc(S(=O)(=O)N(C)C[C@H]2Oc3ccc(NC(=O)Nc4ccc(C(F)(F)F)cc4)cc3C(=O)N([C@H](C)CO)C[C@H]2C)cc1` the AC40 was 5.41 µM.

`Cc1ccc(S(=O)(=O)NCC[C@@H]2CC[C@@H](NC(=O)c3cnccn3)[C@H](CO)O2)cc1` showed an AC40 of 10.2 µM.

With `CC(=O)c1cccc(NS(=O)(=O)c2ccc3c(c2)oc(=O)n3C)c1` the AC40 was 7.31 µM.

Work on `Cc1noc(C)c1NC(=O)Nc1cccc2c1O[C@H](CN(C)Cc1ccccc1)[C@@H](C)CN([C@H](C)CO)C2=O` yielded an AC40 of 7.74 µM.

`CCC(=O)N1N=C(c2ccc(NS(=O)(=O)c3ccc(C)cc3)cc2)CC1c1ccco1` (configuration not stated) was tested, and the AC40 was 4.52 µM.

`COc1cccc(C(=O)N2C[C@H]3[C@@H](c4ccccc42)[C@@H](CO)N3C(=O)c2ccc(F)cc2)c1` showed an AC40 of 2.16 µM.

`O=C(Nc1ccccc1F)N1C[C@H]2[C@@H](c3ccccc31)[C@@H](CO)N2C(=O)c1ccc(F)cc1` showed an AC40 of 1.25 µM.

`Cc1cc(C)cc(NS(=O)(=O)c2ccc3oc(=O)ccc3c2)c1` was tested, and the AC40 was 3.43 µM.

In the case of `CC(=O)Nc1ccc2c(c1)C(=O)N(C)[C@H]1CC[C@@H](CC(=O)NCc3ccc(Cl)cc3)O[C@H]1CO2`, the AC40 is reported as 11 µM.

`CC1CCCN(C(=O)Cn2nnc(-c3cccnc3)n2)C1` (configuration not stated) was tested, and the AC40 was 14.4 µM.

`COc1cccc(N2CCN(C(=O)c3oc4ccccc4c3NC(=O)CCc3cc(OC)no3)CC2)c1` gave an AC40 of 1.31 µM.

`C/C(=N\NC(=O)c1ccccc1O)C1C(=O)c2ccccc2C1=O` was tested, and the AC40 was 18.1 µM.

For `CCOc1cc(C)c(S(=O)(=O)Nc2ccc(Cl)cn2)cc1C`, the AC40 was 4.04 µM.

For `CCOC(=O)Nc1nc(-c2ccccc2)c(C(=O)c2ccc(Cl)cc2)s1`, the AC40 was 13.8 µM.

`C[C@H]1CN([C@@H](C)CO)C(=O)c2cccc(NS(=O)(=O)c3ccccc3)c2O[C@@H]1CN(C)Cc1ccc(C(=O)Nc2ccccc2N)cc1` showed an AC40 of 22 µM.

`COc1ccc(S(=O)(=O)Nc2ccc(CC#N)cc2)cc1` was tested, and the AC40 was 11.9 µM.

`COc1cc(S(=O)(=O)Nc2ccccc2N2CCCCC2)ccc1NC(C)=O` was tested, and the AC40 was 6.94 µM.

For `COc1cc(S(=O)(=O)NC2CCCC2)c(OC)cc1C`, the AC40 was 3.17 µM.

Work on `Cc1ccc(S(=O)(=O)Nc2ccc3c(c2)CC(=O)N([C@@H](C)CO)C[C@@H](C)[C@H](CN(C)Cc2ccc(C(=O)Nc4ccccc4N)cc2)O3)cc1` yielded an AC40 of 32.4 µM.

In the case of `Cc1cccc(NS(=O)(=O)c2cc3c(cc2C)NC(=O)CO3)c1`, the AC40 is reported as 2.36 µM.

`Cc1sc2ncn(CC(=O)N(CC(=O)NC3CCCC3)Cc3cccs3)c(=O)c2c1C` showed an AC40 of 20 µM.

With `Cc1c(C(=O)N2CCCCC2)c(S(=O)(=O)Nc2cccc(Br)c2)c(C)n1C` the AC40 was 1.44 µM.

Molecule `OC(c1ccc(Cl)c(Cl)c1)c1ncc(-c2ccccc2F)[nH]1` (configuration not stated) has an AC40 of 3.49 µM.

In the case of `Cc1cc(NS(=O)(=O)c2ccccc2)cc(Cl)c1O`, the AC40 is reported as 21.1 µM.

Molecule `CCOCC(=O)Nc1c(C(=O)N2CCN(c3ncccn3)CC2)oc2ccccc12` has an AC40 of 0.431 µM.

For `COc1cc(S(=O)(=O)NC2CCCCC2)c(C)cc1C`, the AC40 was 0.686 µM.

For `COc1ccc(NS(=O)(=O)c2cc(NC(=O)c3ccc(F)cc3)ccc2OC)cc1`, the AC40 was 3.14 µM.

With `COc1ccc(S(=O)(=O)Nc2cc(C)c(O)c(S(=O)(=O)c3ccccc3)c2)cc1` the AC40 was 29.6 µM.

Work on `C[C@@H]1CN([C@H](C)CO)C(=O)Cc2cc(NC(=O)Nc3ccccc3)ccc2O[C@@H]1CN(C)C(=O)Nc1cccc2ccccc12` yielded an AC40 of 0.756 µM.

`COc1ccc(S(=O)(=O)Nc2ccc(S(=O)(=O)N3CCCCC3)cc2)cc1C` was tested, and the AC40 was 2.44 µM.

Molecule `CCN(CC)c1ccc(NC(=O)COc2ccccc2C#N)cc1S(=O)(=O)Nc1ccccc1OC` has an AC40 of 0.325 µM.

Work on `COc1ccc(NS(=O)(=O)c2cc(NC(=O)c3ccc(=O)[nH]c3)ccc2C)cc1` yielded an AC40 of 2.64 µM.

Work on `COc1ccc(S(=O)(=O)NCc2ccccc2)cc1` yielded an AC40 of 2.53 µM.

Work on `O=S(=O)(NCC1CCCO1)c1ccc(Oc2ccccc2)cc1` (configuration not stated) yielded an AC40 of 5.86 µM.

For `Cc1ccc(C2=NN3C(C(=O)c4ccccc4)Oc4ccccc4C3C2)cc1` (configuration not stated), the AC40 was 4.05 µM.

Molecule `O=C(N/N=C/c1ccc(Cl)s1)C(O)c1ccccc1` (configuration not stated) has an AC40 of 1.17 µM.

Molecule `Cc1ccccc1OCC(=O)NNC(=O)Nc1ccc(Cl)cc1` has an AC40 of 17.4 µM.

`Cc1cc(C)c(S(=O)(=O)N2CCN=C2c2ccccc2)cc1C` showed an AC40 of 10.3 µM.

Work on `COc1cccc(CNS(=O)(=O)c2cc(-c3cc(C)no3)ccc2C(C)C)c1` yielded an AC40 of 5.07 µM.

Molecule `CCN(CC)c1ccc(S(=O)(=O)Nc2cc(Cl)ccc2Cl)cc1NC(=S)NC(=O)C1CCCC1` has an AC40 of 7.34 µM.

`Cc1ccc(NS(=O)(=O)c2csc(C(N)=O)c2)cc1C` showed an AC40 of 3.14 µM.

With `COc1ccc(S(=O)(=O)NCCc2c(C)nn(C)c2Oc2ccccc2)cc1` the AC40 was 4.82 µM.

`COc1ccc(C(C)(C)C)cc1NS(=O)(=O)c1cccc2cccnc12` showed an AC40 of 2.14 µM.

`Cc1cc(S(=O)(=O)Nc2cc(C)c(O)c(C)c2)c(C)s1` gave an AC40 of 24.9 µM.

`CCOc1cc(C)c(S(=O)(=O)Nc2ccc3cn[nH]c3c2)cc1C` was tested, and the AC40 was 1.24 µM.

With `Fc1cccc(Cn2cc(C(=S)N3CCOCC3)c3ccccc32)c1` the AC40 was 21 µM.

`C[C@@H]1CN([C@H](C)CO)C(=O)c2cccc(NC(=O)c3nc4ccccc4s3)c2O[C@@H]1CN(C)Cc1ccc(C(=O)Nc2ccccc2N)cc1` was tested, and the AC40 was 17.7 µM.

`CC(C)n1nc(C(=O)Nc2cccc(S(=O)(=O)NCc3ccco3)c2)c2ccccc2c1=O` gave an AC40 of 2.61 µM.

Work on `Cc1ccc(S(=O)(=O)N2CC[C@@H]3[C@@H](CO)Nc4ccc(-c5ccccc5F)cc4[C@@H]32)cc1` yielded an AC40 of 1.69 µM.

`O=C(Nc1cccc(S(=O)(=O)Nc2ccc(Cl)cc2)c1)c1ccccn1` showed an AC40 of 1.8 µM.

With `COc1ccc(S(=O)(=O)Nc2ccc3c(c2)C(=O)N([C@@H](C)CO)C[C@H](C)[C@H](CN(C)C(=O)Nc2ccccc2)OCCCC[C@@H](C)O3)cc1` the AC40 was 29.6 µM.

`C[C@@H]1CN([C@H](C)CO)C(=O)c2cccc(NS(=O)(=O)c3cccs3)c2O[C@H]1CN(C)Cc1ccc(C(F)(F)F)cc1` was tested, and the AC40 was 1.6 µM.

For `COc1cc(S(=O)(=O)NC2CCCCC2)ccc1Cl`, the AC40 was 2.18 µM.

Work on `Cc1ccc(S(=O)(=O)NCc2ccco2)c(C)c1C` yielded an AC40 of 1.79 µM.

Work on `C[C@@H]1CN([C@@H](C)CO)C(=O)c2cccc(NC(=O)c3ccc(-c4nccs4)cc3)c2O[C@@H]1CN(C)Cc1ccc(C(=O)Nc2ccccc2N)cc1` yielded an AC40 of 4.9 µM.

For `O=C(c1ccc(F)cc1)N1C[C@@H]2[C@H](c3ccccc31)[C@H](CO)N2C(=O)c1ccc(F)cc1`, the AC40 was 2.35 µM.

In the case of `Cc1cccc(NS(=O)(=O)c2ccc(C)c(C(=O)OCC(=O)Nc3cc(C)on3)c2)c1`, the AC40 is reported as 4.46 µM.

Molecule `CC(=O)N1CCOc2ccc(S(=O)(=O)Nc3cccc(C)c3)cc21` has an AC40 of 1.64 µM.

For `COc1ccccc1NS(=O)(=O)c1cc(Cl)ccc1OC`, the AC40 was 15.9 µM.

With `C[C@H](CO)N1C[C@H](C)[C@H](CN(C)Cc2ccc(C(=O)Nc3ccccc3N)cc2)Oc2ccc(NC(=O)NC3CCCCC3)cc2CC1=O` the AC40 was 16.2 µM.

`COc1cccc(N2CCN(C(=O)c3ccc(CS(=O)c4ccccc4Cl)o3)CC2)c1` (configuration not stated) was tested, and the AC40 was 15.8 µM.

Work on `Cc1ccc(S(=O)(=O)Nc2cc(C)c(O)c(S(=O)(=O)c3ccc(C)cc3)c2)cc1` yielded an AC40 of 11.2 µM.

For `Cc1ccc(S(=O)(=O)Nc2ccc3ncccc3c2)cc1`, the AC40 was 11.6 µM.

`CCCC(C)NS(=O)(=O)c1ccc(OC)c(C)c1` (configuration not stated) was tested, and the AC40 was 10 µM.

`COc1cc(S(=O)(=O)N(CCc2ccccc2)Cc2cccs2)ccc1-n1cnnn1` showed an AC40 of 1.33 µM.

Work on `CCOc1ccc(S(=O)(=O)NCCN2CCOCC2)c2ccccc12` yielded an AC40 of 1.14 µM.

In the case of `CCOc1ccccc1C(=O)N1CCN(c2cccc(Cl)c2)CC1`, the AC40 is reported as 11.6 µM.

Work on `CCN(CC)S(=O)(=O)c1cc(NS(=O)(=O)c2cccc(Cl)c2)ccc1C` yielded an AC40 of 8.63 µM.

`COc1ccc(NS(=O)(=O)c2cc(C)ccc2C)cc1` showed an AC40 of 1.47 µM.

Work on `CC(c1ccco1)N(C(=O)CSc1ccc(Br)cc1)c1ccccn1` (configuration not stated) yielded an AC40 of 14.4 µM.

Molecule `Cc1ccc(S(=O)(=O)Nc2cccc(-c3cn4ccsc4n3)c2)cc1` has an AC40 of 1.81 µM.

Work on `Cc1ccc(NC(=O)C(OC(=O)c2ccc(F)cc2)c2ccccc2)cc1Cl` (configuration not stated) yielded an AC40 of 2.85 µM.

Work on `COc1ccc(OC)c(S(=O)(=O)N2CCC3(CC2)OCCN3S(=O)(=O)c2cccs2)c1` yielded an AC40 of 15.7 µM.

For `CCCNC(=O)C[C@@H]1CC[C@H]2[C@H](COc3ccc(NC(=O)Nc4ccccc4F)cc3C(=O)N2C)O1`, the AC40 was 2.53 µM.

In the case of `Cc1ccc(S(=O)(=O)Nc2cccc3c2O[C@H](CN(C)Cc2ccc(C(=O)Nc4ccccc4N)cc2)[C@H](C)CN([C@H](C)CO)C3=O)cc1`, the AC40 is reported as 10.8 µM.

Molecule `COc1ccc(S(=O)(=O)Nc2ccc(F)cc2)cc1N(C)S(=O)(=O)c1ccc(Cl)cc1` has an AC40 of 4.94 µM.

In the case of `OC(c1ccc(Cl)c(F)c1)c1ncc(-c2cccc(F)c2)[nH]1` (configuration not stated), the AC40 is reported as 9.13 µM.

In the case of `CCN(CC)C(=O)CC(c1ccc(N(C)C)cc1)c1c(OC)cc(OC)c2c(-c3ccccc3)cc(=O)oc12` (configuration not stated), the AC40 is reported as 3 µM.

With `COc1cc(S(=O)(=O)NC2CCCC2)c(OC)cc1Cl` the AC40 was 2.6 µM.

In the case of `CCN(CC)C(=O)CN(c1cc2c(cc1OC)oc1ccccc12)S(=O)(=O)c1ccccc1`, the AC40 is reported as 1.69 µM.

In the case of `Cc1cc(C)nc(N/C(=N\S(=O)(=O)Cc2ccccc2)Nc2ccccc2Br)n1`, the AC40 is reported as 8.51 µM.

In the case of `CN1C(=O)c2cc(NC(=O)Cc3ccccc3)ccc2OC[C@@H]2O[C@@H](CC(=O)NCC3CC3)CC[C@@H]21`, the AC40 is reported as 0.732 µM.

For `O=C(Nc1ccccc1O)c1ccc(NS(=O)(=O)c2cccc3cccnc23)cc1`, the AC40 was 14.8 µM.

Molecule `CC(=O)N1CCCc2cc(S(=O)(=O)Nc3ccc4c(c3)OCO4)ccc21` has an AC40 of 6.16 µM.

Work on `CCC(=O)Nc1ccc(S(=O)(=O)NCCc2ccccc2)cc1` yielded an AC40 of 10.7 µM.

`CCCNC(=O)NC[C@@H]1[C@@H](c2ccc(C3=CCCC3)cc2)[C@H](CO)N1C(=O)CC` gave an AC40 of 5.75 µM.

`C[C@@H]1CN([C@H](C)CO)C(=O)c2cc(NC(=O)Nc3ccccc3)ccc2O[C@@H]1CN(C)S(=O)(=O)c1ccc(Cl)cc1` showed an AC40 of 5.33 µM.

For `COc1ccc(NS(=O)(=O)c2cc(NC(=O)c3cnccn3)ccc2N2CCCC2)cc1`, the AC40 was 3.27 µM.

Work on `O=C(Nc1sc2c(c1C(=O)O)CCC2)c1ccco1` yielded an AC40 of 15.1 µM.

With `O=C(C[C@@H]1C[C@H]2c3cc(NS(=O)(=O)c4ccc(F)cc4)ccc3O[C@H]2[C@H](CO)O1)NCc1ccc(-c2ccccc2)cc1` the AC40 was 5.24 µM.

Molecule `COCCNC(=O)c1ccc(C)c(S(=O)(=O)Nc2ccc(C)cc2)c1` has an AC40 of 6.38 µM.

`COc1ccc(NS(=O)(=O)c2cc(NC(=O)CCc3ccc(OC)c(OC)c3)ccc2N2CCOCC2)cc1` showed an AC40 of 1.77 µM.

For `Cc1cccc(S(=O)(=O)NC2CCCCCCC2)c1`, the AC40 was 3.27 µM.

Molecule `Cc1ccc(C)c(S(=O)(=O)Nc2cc3c4c(c2)CC(=O)N4CCC3)c1` has an AC40 of 1.88 µM.

Source: PubChem BioAssay AID652053 (Broad Institute, 2013)
